# Measured values published in US20100093751A1, “Indolizineacetic Acids and Their Therapeutic Use as Ligands of the CRTH2 Receptor” (priority 2006, published 2010).
# pKi: −log10 of the molar value.
# Molecular target: T1, CRTH2 receptor (Homo sapiens, UniProt Q9Y5Y4)
# T1 construct: expressed in transfected cells; host or cells: HEK (human embryonic kidney) cells, membranes
# T1 sequence (Q9Y5Y4 1-395): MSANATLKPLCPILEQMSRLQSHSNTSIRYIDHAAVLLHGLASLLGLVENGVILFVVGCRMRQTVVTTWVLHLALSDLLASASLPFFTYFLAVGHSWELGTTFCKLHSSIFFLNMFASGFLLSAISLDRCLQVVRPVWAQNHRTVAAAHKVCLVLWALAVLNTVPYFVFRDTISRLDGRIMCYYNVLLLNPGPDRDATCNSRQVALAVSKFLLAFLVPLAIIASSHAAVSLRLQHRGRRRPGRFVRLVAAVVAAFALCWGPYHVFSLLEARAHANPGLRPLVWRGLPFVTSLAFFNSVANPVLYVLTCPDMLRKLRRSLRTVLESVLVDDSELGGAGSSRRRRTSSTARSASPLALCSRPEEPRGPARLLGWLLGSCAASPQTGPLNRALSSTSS
# Assay: CRTH2 radioligand binding assay ([3H]-PGD2 displacement, SPA)
# Details: HEK cell membranes expressing the CRTH2 receptor, 1 nM [3H]-PGD2; Ki from IC50 by Cheng-Prusoff equation
# Method: Compounds of the invention were tested using the following biological test method to determine their ability to displace PGD2 from the CRTH2 receptor.
# Radioligand Binding Assay
# The receptor binding assay is performed in a final volume of 200 μL binding buffer [10 mM BES (pH 7.4), 1 mM EDTA, 10 mM manganese chloride, 0.01% BSA] and 1 nM [^3H]-PGD2 (Amersham Biosciences UK Ltd). Ligands are added in assay buffer containing a constant amount of DMSO (1% by volume). Total binding is determined using 1% by volume of DMSO in assay buffer and non-specific binding is determined using 10 μM of unlabeled PGD2 (Sigma). Human embryonic kidney (HEK) cell membranes (3.5 μg) expressing the CRTH2 receptor are incubated with 1.5 mg wheatgerm agglutinin SPA beads and 1 nM [^3H]-PGD2 (Amersham Biosciences UK Ltd) and the mixture incubated for 3 hours at room temperature. Bound [^3H]-PGD2 is detected using a Microbeta TRILUX liquid scintillation counter (Perkin Elmer). Compound IC50 value is determined using a 6-point dose response curve in duplicate with a semi-log compound dilution series. IC50 calculations are performed using Excel and XLfit (Microsoft), and this value is used to determine a Ki value for the test compound using the Cheng-Prusoff equation.
row,pKi,Compound
1,7.72,"Cc1c(CC(=O)O)c2ccc(F)cn2c1Sc1ccc(-c2cnn(C)c2)cc1 [Example 4, {6-fluoro-2-methyl-3-[4-(1-methyl-1H-pyrazol-4-yl)phenylsulfanyl]indolizin-1-yl}acetic acid]"
2,9.30,"Cc1c(CC(=O)O)c2ccc(F)cn2c1Sc1ccc(S(=O)(=O)N2CCOCC2)cc1F [Example 1, {6-fluoro-3-[2-fluoro-4-(morpholine-4-sulfonyl)phenylsulfanyl]-2-methylindolizin-1-yl}acetic acid]"
